Like-named read-outs stand apart in the source and are kept apart here.
How the values were obtained:
Assay type in all cases: biochemical
GGTase I = molecular target: T1, GGTase I (Homo sapiens, UniProt P53609); experiment: GGTase I activity assay: transfer of [3H]geranylgeranyl to recombinant H-Ras-CVLL, Daudi 60,000xg supernatant
T1 construct: FTase and GGTase I activities from 60,000×g supernatants of human Burkitt lymphoma (Daudi) cells; endogenous in cells; host or cells: human Burkitt lymphoma (Daudi) cells, 60,000xg supernatant (partially purified)
T1 sequence (P53609 whole entry): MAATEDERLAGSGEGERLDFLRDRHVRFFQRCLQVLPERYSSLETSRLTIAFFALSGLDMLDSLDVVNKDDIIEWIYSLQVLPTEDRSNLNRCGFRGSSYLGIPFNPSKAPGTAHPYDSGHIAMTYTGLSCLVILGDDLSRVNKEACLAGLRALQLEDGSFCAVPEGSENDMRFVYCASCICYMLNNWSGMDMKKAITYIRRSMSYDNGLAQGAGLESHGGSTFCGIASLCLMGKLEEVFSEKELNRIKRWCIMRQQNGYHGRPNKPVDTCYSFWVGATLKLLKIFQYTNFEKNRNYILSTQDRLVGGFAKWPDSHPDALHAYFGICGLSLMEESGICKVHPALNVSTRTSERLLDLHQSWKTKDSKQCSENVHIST
Protocol: FTase and GGTase I activities from 60,000×g supernatants of human Burkitt lymphoma (Daudi) cells (ATCC, Rockville, Md., USA) were assayed as described previously for FTase (41). Briefly, 100 μg of the supernatant was incubated in 50 mM Tris, pH 7.5, 50 μM ZnCl2, 20 mM KCl and 1 mM dithiothreitol (DTT). The reaction was incubated at […] for 30 min with recombinant Ha-Ras-CVLS (11 μM) and [^3 H]FPP (625 nM; 16.3 Ci/mmol) for FTase, and recombinant Ha-Ras-CVLL (5 μM) and [^3 H]geranylgeranylpyrophosphate (525 nM; 19.0 Ci/mmol) for GGTase I. The peptidomimetics were mixed with FTase and GGTase before adding to the reaction mixture.
(§1) Human Burkitt lymphoma (Daudi) cells (ATCC, Rockville, Md.) were grown in suspension in RPMI 1640 medium containing 10% fetal bovine serum (FBS) and 1% Pen-Strep in a humidified 10% CO2 incubator at 37° C. The cells were harvested and sonicated in 50 mM Tris, pH 7.5, 1 mM EDTA, 1 mM EGTA, 25 μg/ml leupeptin, 1 mM phenylmethylsulfonyl fluoride. Homogenates were then spun at 12,000×g and the resulting supernatant further spun at 60,000×g. The supernatant was assayed for both FTase and GGTase I. Briefly, 100 μg of the supernatants was incubated in 50 mM Tris, pH 7.5, 50 μM ZnCl2, 20 mM KCl, 3 mM MgCl2 and 1 mM DTT. For FTase assays, the reaction was incubated at 37° C. for 30 minutes with recombinant H-Ras-CVLS (11 μM) and [^3 H] FPP (625 nM; 16.3 Ci/mmol). For GGTase assays, the reaction was also incubated for 30 minutes at 37° C. but with recombinant H-Ras-CVLL (5 μM) and [^3 H] GGPP (525 nM; 19.0 Ci/mmol). The reaction was stopped and passed through glass fiber filters to separate free and incorporated label. For inhibition studies, the peptidomimetics were premixed with FTase or GGTase I prior to adding the remainder of the reaction mixture. Recombinant H-Ras-CVLS was prepared as described previously (26) from bacteria (31). Recombinant H-Ras-CVLL was prepared from bacteria (32).
FTase and GGTase I activities from 60,000×g supernatants of human Burkitt lymphoma (Daudi) cells (ATCC, Rockville, Md.) were assayed exactly as described previously for FTase (41). Inhibition studies were performed by determining the ability of Ras CAAX peptidomimetics to inhibit the transfer of [^3 H]-farnesyl and [^3 H]-geranylgeranyl from [^3 H]FPP and [^3 H]GGPP to H-ras-CVLS and H-Ras-CVLL, respectively (41).

FTase [1] = molecular target: T2, FTase (Homo sapiens, UniProt P49356); experiment: FTase activity assay: transfer of [3H]farnesyl from FPP to recombinant H-Ras-CVLS, Daudi 60,000xg supernatant; conditions: for Selectivity: FTase over GGTase I; for GG/F: ratio GGTase I IC50 / FTase IC50
T2 construct: FTase and GGTase I activities from 60,000×g supernatants of human Burkitt lymphoma (Daudi) cells; endogenous in cells; host or cells: human Burkitt lymphoma (Daudi) cells, 60,000xg supernatant (partially purified)
T2 sequence (P49356 whole entry): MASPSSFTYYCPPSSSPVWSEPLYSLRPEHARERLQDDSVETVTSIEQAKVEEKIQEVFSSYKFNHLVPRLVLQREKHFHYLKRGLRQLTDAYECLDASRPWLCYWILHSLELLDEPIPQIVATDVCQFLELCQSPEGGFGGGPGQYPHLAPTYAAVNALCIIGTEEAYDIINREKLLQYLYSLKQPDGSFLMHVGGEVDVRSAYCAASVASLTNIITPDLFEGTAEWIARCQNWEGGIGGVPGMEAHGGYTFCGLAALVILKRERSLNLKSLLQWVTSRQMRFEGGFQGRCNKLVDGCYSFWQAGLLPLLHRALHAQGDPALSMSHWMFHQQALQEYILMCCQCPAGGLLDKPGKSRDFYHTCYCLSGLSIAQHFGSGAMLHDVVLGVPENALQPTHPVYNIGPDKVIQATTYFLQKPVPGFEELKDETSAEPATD
Protocol: FTase and GGTase I activities from 60,000×g supernatants of human Burkitt lymphoma (Daudi) cells (ATCC, Rockville, Md., USA) were assayed as described previously for FTase (41). Briefly, 100 μg of the supernatant was incubated in 50 mM Tris, pH 7.5, 50 μM ZnCl2, 20 mM KCl and 1 mM dithiothreitol (DTT).
as §1, with “For FTase assays, the reaction was incubated at 37° C. for 30 minutes with recombinant H-Ras-CVLS (11 μM) and [^3 H]” left out, “Recombinant H-Ras-CVLS was prepared as described previously (26) from bacteria (31).” left out
FTase and GGTase I activities from 60,000×g supernatants of human Burkitt lymphoma (Daudi) cells (ATCC, Rockville, Md.) were assayed exactly as described previously for FTase (41).

FTase [2] = molecular target: T2, FTase; experiment: Peptidomimetics farnesylation assay (silica gel TLC); conditions: Table 4; substrate for farnesylation, TLC
Protocol: The ability of human Burkitt lymphoma (Daudi) FTase to farnesylate peptides and peptidomimetics was determined as described previously (34, 35). Briefly, 25 μl of reaction mixture containing 50 μg of 60,000×g supernatants and 20 μM peptidomimetic in 50 mM Tris, pH 7.5, 50 μM ZnCl2, 20 mM KCl, 3 mM MgCl2, 1 mM DTT and 0.2% octylβ-D-glucoside was incubated for 30 minutes at 37° C., then spotted onto silica gel G TLC sheets (20×20 cm, Brinkmann Instruments), and developed with n-propanol/5 N ammonium hydroxide/water (6:1:1). The dried sheets were sprayed with En^3 Hance (DuPont NEN) and exposed to x-ray film for detection of [^3 H] farnesylated products.

[3] = Table 4, read-out: GGTase-I IC50
[4] = Table 1, read-out: GGTase I IC50

Compound	IC50 (GGTase I; [3])	Selectivity (FTase [1]; Table 4)	IC50 (FTase [1]; Table 4, read-out: FTase IC50)	also measured
COc1cc(C(=O)NC(CCSC)C(=O)O)ccc1NC(=O)C(N)CS.O=C(O)C(F)(F)F (stereo not drawn) [FTI-261, TFA.Cysteine-4-amino-3-methoxybenzoyl methionine]				IC50 (GGTase I; [4]): 50 µM; GG/F (FTase [1]; Table 1): 20; IC50 (FTase [1]; Table 1, read-out: FTase IC50): 2.55 µM
CSCC[C@H](NC(=O)c1ccc(NC(=O)[C@@H](N)CS)cc1-c1ccccc1)C(=O)O.O=C(O)C(F)(F)F [FTI-272, TFA.Cysteine-4-amino-2-phenylbenzoyl methionine]				IC50 (GGTase I; [4]): 0.267 µM; GG/F (FTase [1]; Table 1): 53; IC50 (FTase [1]; Table 1, read-out: FTase IC50): 0.005 µM
N[C@@H](CS)CNc1ccc(-c2ccccc2C(=O)O)cc1 [FTI-273, 4-N-[2(R)-Amino-3-mercaptopropyl]amino-2'-carboxybiphenyl]	140 µM	258	0.543 µM	
COC(=O)C(CCSC)NC(=O)c1ccc(NC(=O)C(N)CS)cc1-c1ccccc1.Cl (stereo not drawn) [FTI-274, HCl.cysteine-4-amino-2-phenylbenzoyl methionine methyl ester]				IC50 (GGTase I; [4]): 30 µM; GG/F (FTase [1]; Table 1): 15; IC50 (FTase [1]; Table 1, read-out: FTase IC50): 2.05 µM
CSCC[C@H](NC(=O)c1ccc(NC(=O)[C@@H](N)CS)cc1-c1cc(C)cc(C)c1)C(=O)O.O=C(O)C(F)(F)F [FTI-275, TFA.Cysteine-4-amino-2-(3,5-dimethylphenyl)benzoyl methionine]				IC50 (GGTase I; [4]): 0.4 µM; GG/F (FTase [1]; Table 1): 1; IC50 (FTase [1]; Table 1, read-out: FTase IC50): 0.405 µM
Cc1cccc(-c2ccc(NC[C@@H](N)CS)cc2-c2ccccc2)c1 [FTI-285, red.Cys-4-amino-2-phenyl-3'-methylbiphenyl]	8.5 µM	4	2.08 µM	
N[C@@H](CS)CNc1ccc(-c2cccc(C(=O)O)c2)c(-c2ccccc2)c1 [FTI-289, red.Cys-4-amino-2-phenyl-3'-carboxybiphenyl]	0.643 µM	40	0.016 µM	
NCC(N)C(=O)Nc1ccc(-c2cccc(C(=O)O)c2)cc1 (stereo not drawn) [FTI-291, 4-(3-Aminoalanyl)-amino-3'-carboxybiphenyl]			210 µM	
NC[C@H](N)CNc1ccc(-c2cccc(C(=O)O)c2)cc1 [FTI-292, (L)4(2,3-diaminopropyl)-amino-3'-carboxybiphenyl]			60 µM	
CCS(=O)(=O)NCC(N)C(=O)Nc1ccc(-c2cccc(C(=O)O)c2)cc1 (stereo not drawn) [FTI-295, 4-(Ethylsulfonyl-3-aminoalanyl)-amino-3'-carboxy-biphenyl]	> 1000 µM	> 5	200 µM	
CC(C)C[C@H](NC(=O)c1ccc(NC[C@@H](N)CS)cc1-c1ccccc1)C(=O)O [GGTI-287, 4-[2(R)-amino-3-mercaptopropyl]amino-2-phenylbenzoyl-(S)-leucine]				selectivity for GGTase I over FTase (GGTase I): 5 fold; IC50 (GGTase I; Table 5, read-out: In Vitro IC50 GGTase I): 0.005 µM; IC50 (GGTase I; read-out: GGTase I IC50): 0.005 µM; IC50 (FTase [1]; Table 5, read-out: In Vitro IC50 FTase): 0.025 µM
HCl-cysteine-4-aminobenzoyl methionine [FTI-232]	1.5 µM	10	0.15 µM	IC50 (GGTase I; [4]): 1.2 µM; selectivity for FTase over GGTase I (FTase [1]): 10 fold; GG/F (FTase [1]; Table 1): 6; IC50 (FTase [1]; Table 1, read-out: FTase IC50): 0.213 µM
TFA.cysteine-4-amino-1-naphthoyl methionine [FTI-270]				IC50 (GGTase I; [4]): 3.15 µM; GG/F (FTase [1]; Table 1): 22; IC50 (FTase [1]; Table 1, read-out: FTase IC50): 0.143 µM
TFA.cysteine-4-amino-3-methylbenzoyl methionine [FTI-260]				IC50 (GGTase I; [4]): 9 µM; GG/F (FTase [1]; Table 1): 11; IC50 (FTase [1]; Table 1, read-out: FTase IC50): 0.825 µM

More lines, main results first:

IC50 (GGTase I; [3])	Selectivity (FTase [1]; Table 4)	IC50 (FTase [1]; Table 4, read-out: FTase IC50)	Compound	also measured
> 1000 µM	> 2	430 µM	4-(Vinylsulfonyl-3-aminoalanyl)-amino-3'-carboxybiphenyl [FTI-296]	
> 100 µM	> 1	100 µM	N[C@@H](CS)C(=O)NCc1cccc(-c2cccc(C(=O)O)c2)c1 [FTI-238, Cys-3-aminomethyl-3'-carboxybiphenyl]	Substrate (FTase [2]): no
> 100 µM	109	0.917 µM	COC(=O)c1cccc(-c2ccc(NC[C@@H](N)CS)cc2)c1 [FTI-259, 4-N-[2(R)-Amino-3-mercaptopropyl]amino-3'-methoxycarbonylbiphenyl]	Substrate (FTase [2]): no
> 100 µM	93	1.07 µM	N[C@@H](CS)CNc1ccc(-c2ccccc2)cc1 [FTI-268, 4-N-[2(R)Amino-3-Mercaptopropyl]aminobiphenyl]	Substrate (FTase [2]): no
100 µM	7	13.5 µM	N[C@@H](CS)C(=O)Nc1ccc(-c2cccc(C(=O)O)c2)cc1 [FTI-278, Cysteinyl-4-amino-3'-carboxybiphenyl]	
43.6 µM	1090	0.04 µM	COc1cc(NC[C@@H](N)CS)ccc1-c1cccc(C(=O)O)c1 [FTI-281, 2-Methoxy-4-N-[2(R)-amino-3-mercaptopropyl]amino-3'-carboxybiphenyl]	
	> 2	50 µM	NCC(N)CNc1ccc(-c2cccc(C(=O)O)c2)cc1 (stereo not drawn) [FTI-282, (DL) 4-(2,3-diaminopropyl)-amino-3' carboxybiphenyl]	
35 µM	3	11 µM	N[C@@H](CS)CNCc1cccc(-c2cccc(C(=O)O)c2)c1 [FTI-283, red.Cys-3-aminomethyl-3'-carboxybiphenyl]	
2.38 µM	59	0.041 µM	CCCOc1cc(NC[C@@H](N)CS)ccc1-c1cccc(C(=O)O)c1 [FTI-288, red.Cys-4-amino-2-OPr-3'-carboxybiphenyl]	
5 µM	187	0.03 µM	N[C@@H](CS)CNc1ccc(-c2cccc(-c3nnn[nH]3)c2)cc1 [FTI-2102, red.Cys-4-amino-3'-tetrazolylbiphenyl]	

From patent US5965539A, “Inhibitors of prenyl transferases” (Univeristy of Pittsburgh, priority 1996, dated 1999)
